Results on 17 molecules are retold here after US20100056526A1, “HETEROMONOCYCLIC COMPOUND AND USE THEREOF” (Takeda Pharmaceutical Company Limited, priority 2006, published 2010).

Where a name gives a salt, the structure may show the parent alone. Read-outs that look alike come from different tables or passages of the source.

In one assay the target is T1, PPARγ (Homo sapiens, UniProt P37231).
T1 construct: expressed in transfected cells; host or cells: CHO-K1
T1 sequence (P37231 1-477 isoform P37231-2): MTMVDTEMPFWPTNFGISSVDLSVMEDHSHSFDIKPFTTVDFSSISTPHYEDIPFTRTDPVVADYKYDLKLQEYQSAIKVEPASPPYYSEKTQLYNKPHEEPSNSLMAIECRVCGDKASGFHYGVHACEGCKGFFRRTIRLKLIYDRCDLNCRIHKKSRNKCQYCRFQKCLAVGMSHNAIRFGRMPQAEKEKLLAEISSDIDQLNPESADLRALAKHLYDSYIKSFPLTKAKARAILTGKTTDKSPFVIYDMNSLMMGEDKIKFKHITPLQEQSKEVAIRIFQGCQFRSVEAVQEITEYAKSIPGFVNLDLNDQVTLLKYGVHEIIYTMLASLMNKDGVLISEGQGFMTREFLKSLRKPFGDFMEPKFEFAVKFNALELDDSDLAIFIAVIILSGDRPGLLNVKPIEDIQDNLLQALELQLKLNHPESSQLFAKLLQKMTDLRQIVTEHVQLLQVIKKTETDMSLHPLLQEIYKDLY
T1 sequence (P19793 1-462 partner): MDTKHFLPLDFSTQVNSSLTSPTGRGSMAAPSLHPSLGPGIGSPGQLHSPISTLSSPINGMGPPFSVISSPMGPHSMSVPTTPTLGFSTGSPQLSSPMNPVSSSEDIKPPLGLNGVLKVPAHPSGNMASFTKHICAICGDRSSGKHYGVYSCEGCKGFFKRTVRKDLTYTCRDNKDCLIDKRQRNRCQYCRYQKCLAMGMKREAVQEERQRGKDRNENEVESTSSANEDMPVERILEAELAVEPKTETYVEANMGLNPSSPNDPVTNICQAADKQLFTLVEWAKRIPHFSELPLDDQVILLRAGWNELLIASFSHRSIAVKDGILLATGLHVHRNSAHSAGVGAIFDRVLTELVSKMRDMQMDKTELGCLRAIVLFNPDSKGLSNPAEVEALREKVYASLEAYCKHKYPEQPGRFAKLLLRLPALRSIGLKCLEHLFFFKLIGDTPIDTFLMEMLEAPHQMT
Put plainly: Evaluation of PPARγ activating action (luciferase reporter in PPARγ:RXRα:4ERPP/CHO-K1 cells). Format: cell-based. Particulars: CHO-K1, 24 h, read-out: PPARγ activating action (activation % (10^−6 M)). An outline of the steps:
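CHO-K1 cells stably carrying PPARγ, RXRα and a 4ERPP luciferase reporter were treated with compound for 1 day at 37 °C in F12 medium with 0.1% fatty acid-free BSA. Luciferase activity was read and scaled between no compound (0%) and reference agonist compound X at 1 μM (100%).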

A further assay concerns the target T2, human AT1 receptor (Homo sapiens, UniProt P30556).
T2 construct: expressed in transfected cells; host or cells: CHO-K1
T2 sequence (P30556 1-359): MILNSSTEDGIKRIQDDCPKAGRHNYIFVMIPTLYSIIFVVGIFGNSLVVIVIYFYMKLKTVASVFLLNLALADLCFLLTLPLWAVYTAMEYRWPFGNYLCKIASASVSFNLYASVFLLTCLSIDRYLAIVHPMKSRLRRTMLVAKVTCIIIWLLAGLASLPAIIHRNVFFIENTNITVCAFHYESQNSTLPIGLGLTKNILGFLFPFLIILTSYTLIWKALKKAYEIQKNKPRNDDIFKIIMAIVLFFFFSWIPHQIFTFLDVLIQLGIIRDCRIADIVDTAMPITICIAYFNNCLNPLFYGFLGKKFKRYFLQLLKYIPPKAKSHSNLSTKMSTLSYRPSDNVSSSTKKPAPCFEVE
The experiment in a line: Binding assay using human AT1 receptor-expressing CHO-K1 cell membrane fraction ([125I]-angiotensin II). To be noted: 22.5 pM [125I]-angiotensin II, 9 μg AT1 membrane, 1 hr room temperature; read-out: AT1 receptor binding inhibitory action (IC50 (nM)). An outline of the steps:
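CHO-K1 membranes stably expressing AT1 (9 μg) incubated with 22.5 pM [125I]-angiotensin II and compound in 50 mM Tris pH 7.4, 10 mM MgCl2, with or without 0.3 mg/mL fatty acid-free BSA, 1 hr at room temperature. Bound radioactivity counted after GF/C filtration; nonspecific binding with 1 μM CV-11974; IC50 calculated.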

Where [1] appears, read: test compound 10^−6 M, luciferase activity relative to control compound X (1 μM) = 100%, non-administration group = 0%.

As for `CCCc1nc(C)n(-c2ccc(OC(C)CC)cc2)c(=O)c1Cc1ccc(-c2ccccc2-c2noc(=O)[nH]2)cc1` (stereo not shown) [Example 271, 3-(4-sec-butoxyphenyl)-2-methyl-5-{[2′-(5-oxo-4,5-dihydro-1,2,4-oxadiazol-3-yl)biphenyl-4-yl]methyl}-6-propylpyrimidin-4(3H)-one], at PPARγ (setting [1]), the activation at 1 µM is 37.1%. Also, the IC50 on human AT1 receptor turned out to be 1.9 nM.
With `CCCc1nc(C)n(-c2cc(F)c3c(c2)CC(C)(C)O3)c(=O)c1Cc1ccc(-c2ccccc2-c2noc(=O)[nH]2)cc1` [Example 275, 3-(7-fluoro-2,2-dimethyl-2,3-dihydro-1-benzofuran-5-yl)-2-methyl-5-{[2′-(5-oxo-4,5-dihydro-1,2,4-oxadiazol-3-yl)biphenyl-4-yl]methyl}-6-propylpyrimidin-4(3H)-one], on PPARγ (setting [1]), the activation at 1 µM was 17%. The IC50 on human AT1 receptor worked out at 1.8 nM.
On to `CCCc1nc(C)n(-c2ccc(OC(C)CF)cc2)c(=O)c1Cc1ccc(-c2ccccc2-c2noc(=O)[nH]2)cc1` (stereo not shown) [Example 277, 3-[4-(2-fluoro-1-methylethoxy)phenyl]-2-methyl-5-{[2′-(5-oxo-4,5-dihydro-1,2,4-oxadiazol-3-yl)biphenyl-4-yl]methyl}-6-propylpyrimidin-4(3H)-one], for which the activation at 1 µM at PPARγ (setting [1]) was found to be 33.5%. Moreover, on human AT1 receptor, the IC50 was 1.8 nM.
On to `CCCc1nc(C)c(Cc2ccccc2)c(=O)n1Cc1ccc(-c2ccccc2-c2noc(=O)[nH]2)cc1` [Example 287, 5-benzyl-6-methyl-3-{[2′-(5-oxo-4,5-dihydro-1,2,4-oxadiazol-3-yl)biphenyl-4-yl]methyl}-2-propylpyrimidin-4(3H)-one], for which the activation at 1 µM on PPARγ (setting [1]) came out at 40.9%. For the same molecule, at human AT1 receptor, the IC50 was 1.8 nM.
On the same counts, the results for `CCCc1nc(C)n(-c2ccc(OC(C)COC)cc2)c(=O)c1Cc1ccc(-c2ccccc2-c2noc(=O)[nH]2)cc1` (stereo not shown) [Example 293, 3-[4-(2-methoxy-1-methylethoxy)phenyl]-2-methyl-5-{[2′-(5-oxo-4,5-dihydro-1,2,4-oxadiazol-3-yl)biphenyl-4-yl]methyl}-6-propylpyrimidin-4(3H)-one] are 28.2% and 1.8 nM.
Consider `CCCCc1nc(C)n(CCCC)c(=O)c1Cc1ccc(-c2ccccc2-c2noc(=O)[nH]2)cc1` [Example 294, 3,6-dibutyl-2-methyl-5-{[2′-(5-oxo-4,5-dihydro-1,2,4-oxadiazol-3-yl)biphenyl-4-yl]methyl}pyrimidin-4(3H)-one], for which, at PPARγ (setting [1]), the activation at 1 µM is 47.1%. Further, the IC50 at human AT1 receptor amounted to 1.8 nM.
`CCCCc1nc(C2CC2)n(-c2ccccc2)c(=O)c1Cc1ccc(-c2ccccc2-c2noc(=O)[nH]2)cc1` [Example 310, 6-butyl-2-cyclopropyl-5-{[2′-(5-oxo-4,5-dihydro-1,2,4-oxadiazol-3-yl)biphenyl-4-yl]methyl}-3-phenylpyrimidin-4(3H)-one potassium salt]: at PPARγ, the activation at 1 µM was 27.1%. For the same molecule, at human AT1 receptor, the IC50 amounted to 1.9 nM.
On the same counts, the results for `CCCc1nc(CC)n(-c2ccc3c(c2)CCO3)c(=O)c1Cc1ccc(-c2ccccc2-c2noc(O)n2)cc1` [Example 311, 3-(2,3-dihydro-1-benzofuran-5-yl)-2-ethyl-5-{[2′-(5-oxo-4,5-dihydro-1,2,4-oxadiazol-3-yl)biphenyl-4-yl]methyl}-6-propylpyrimidin-4(3H)-one potassium salt] are 38.1% and 1.6 nM.
In the case of `CCCc1nc(CC)n(-c2ccc3c(c2)CC(C)O3)c(=O)c1Cc1ccc(-c2ccccc2-c2noc(O)n2)cc1` (stereo not shown) [Example 312, 2-ethyl-3-(2-methyl-2,3-dihydro-1-benzofuran-5-yl)-5-{[2′-(5-oxo-4,5-dihydro-1,2,4-oxadiazol-3-yl)biphenyl-4-yl]methyl}-6-propylpyrimidin-4(3H)-one potassium salt], the activation at 1 µM at PPARγ was determined as 50.3%. For the same molecule, on human AT1 receptor, the IC50 was 1.6 nM.
The matching figures for `CCCc1nc(CC)n(-c2ccc(OC)cc2)c(=O)c1Cc1ccc(-c2ccccc2-c2noc(O)n2)cc1` [Example 313, 2-ethyl-3-(4-methoxyphenyl)-5-{[2′-(5-oxo-4,5-dihydro-1,2,4-oxadiazol-3-yl)biphenyl-4-yl]methyl}-6-propylpyrimidin-4(3H)-one potassium salt]: 31% and 1.5 nM.
For the molecule `CCCc1nc(C)n(-c2ccc(OC3CCC3)c(F)c2)c(=O)c1Cc1ccc(-c2ccccc2-c2noc(=O)[nH]2)cc1` [Example 318, 3-[4-(cyclobutyloxy)-3-fluorophenyl]-2-methyl-5-{[2′-(5-oxo-4,5-dihydro-1,2,4-oxadiazol-3-yl)biphenyl-4-yl]methyl}-6-propylpyrimidin-4(3H)-one], at PPARγ (setting [1]), the activation at 1 µM turned out to be 19.2%. Further, the IC50 on human AT1 receptor worked out at 1.8 nM.
On the same counts, the results for `CCCc1nc(C)n(-c2ccc(OC3CCCC3)cc2)c(=O)c1Cc1ccc(-c2ccccc2-c2noc(=O)[nH]2)cc1` [Example 319, 3-[4-(cyclopentyloxy)phenyl]-2-methyl-5-{[2′-(5-oxo-4,5-dihydro-1,2,4-oxadiazol-3-yl)biphenyl-4-yl]methyl}-6-propylpyrimidin-4(3H)-one] are 17.2% and 1.8 nM.
On the same counts, the results for `CCCc1nc(C)n(C=C(C)C)c(=O)c1Cc1ccc(-c2ccccc2-c2noc(=O)[nH]2)cc1` [Example 323, 2-methyl-3-(2-methylprop-1-en-1-yl)-5-{[2′-(5-oxo-4,5-dihydro-1,2,4-oxadiazol-3-yl)biphenyl-4-yl]methyl}-6-propylpyrimidin-4(3H)-one] are 20% and 2.1 nM.
On the same counts, the results for `C#CCC(C)Oc1ccc(-n2c(C)nc(CCC)c(Cc3ccc(-c4ccccc4-c4noc(=O)[nH]4)cc3)c2=O)cc1` (stereo not shown) [Example 324, 2-methyl-3-{4-[(1-methylbut-3-yn-1-yl)oxy]phenyl}-5-{[2′-(5-oxo-4,5-dihydro-1,2,4-oxadiazol-3-yl)biphenyl-4-yl]methyl}-6-propylpyrimidin-4(3H)-one] are 45.2% and 1.7 nM.
Regarding `CCCc1nc(C)n(-c2ccc(OC(C)C)nc2)c(=O)c1Cc1ccc(-c2ccccc2-c2noc(=O)[nH]2)cc1` [Example 325, 3-(6-isopropoxypyridin-3-yl)-2-methyl-5-{[2′-(5-oxo-4,5-dihydro-1,2,4-oxadiazol-3-yl)biphenyl-4-yl]methyl}-6-propylpyrimidin-4(3H)-one], the activation at 1 µM at PPARγ (setting [1]) was determined as 30.2%. Also, the concentration for half-maximal inhibition (IC50) at human AT1 receptor turned out to be 3.4 nM.
Regarding `CCCc1nc(C)n(-c2ccc(OC(C)C#N)cc2)c(=O)c1Cc1ccc(-c2ccccc2-c2noc(=O)[nH]2)cc1` (stereo not shown) [Example 327, 2-{4-[2-methyl-6-oxo-5-{[2′-(5-oxo-4,5-dihydro-1,2,4-oxadiazol-3-yl)biphenyl-4-yl]methyl}-4-propylpyrimidin-1(6H)-yl]phenoxy}propanenitrile], the activation at 1 µM at PPARγ (setting [1]) came out at 22.6%. Moreover, the IC50 at human AT1 receptor came out at 2.2 nM.
On the same counts, the results for `CCCc1nc(C)n(-c2ccc(O[C@@H]3C[C@@H](C)O[C@@H](C)C3)cc2)c(=O)c1Cc1ccc(-c2ccccc2-c2noc(=O)[nH]2)cc1F` [Example 338, 3-(4-{[(2R,4s,6S)-2,6-dimethyltetrahydro-2H-pyran-4-yl]oxy}phenyl)-5-{[3-fluoro-2′-(5-oxo-4,5-dihydro-1,2,4-oxadiazol-3-yl)biphenyl-4-yl]methyl}-2-methyl-6-propylpyrimidin-4(3H)-one] are 32.5% and 1.8 nM.

As usually defined, the IC50 is the point on the concentration scale where inhibition reaches its midpoint.
